From ChEMBL document CHEMBL1649369, “Novel 4-aryl-pyrido[1,2-c]pyrimidines with dual SSRI and 5-HT(1A) activity. part 3” (Eur J Med Chem, 2011)
Blank lines part the entries; values can stand above or below the compound they belong to. Activity calls are given as the source filed them. No cut-off for these calls is given here.

What was measured:
[1] = biological target: T1, 5-hydroxytryptamine receptor 1A (Rattus norvegicus, UniProt P19327); assay: Displacement of [3H]8-OH-DPAT from 5-HT1A receptor in rat hippocampus; format: tissue-based
T1 sequence (P19327 whole entry): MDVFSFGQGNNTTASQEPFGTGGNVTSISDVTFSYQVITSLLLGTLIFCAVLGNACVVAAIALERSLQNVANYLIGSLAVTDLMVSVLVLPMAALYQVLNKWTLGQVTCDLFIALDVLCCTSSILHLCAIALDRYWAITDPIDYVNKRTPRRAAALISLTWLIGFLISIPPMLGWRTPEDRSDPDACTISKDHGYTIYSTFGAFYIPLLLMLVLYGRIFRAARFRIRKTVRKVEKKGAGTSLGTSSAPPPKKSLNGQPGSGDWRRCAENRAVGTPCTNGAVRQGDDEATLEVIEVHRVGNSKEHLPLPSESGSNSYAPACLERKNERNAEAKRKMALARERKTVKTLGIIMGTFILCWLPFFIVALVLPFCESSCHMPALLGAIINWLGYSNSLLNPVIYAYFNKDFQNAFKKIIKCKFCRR

[2] = biological target: Sodium-dependent serotonin transporter (Rattus norvegicus, UniProt P31652); assay: Displacement of [3H]citalopram from SERT in rat cerebral cortex by liquid scintillation counting; format: tissue-based
Sequence of Sodium-dependent serotonin transporter (P31652 whole entry): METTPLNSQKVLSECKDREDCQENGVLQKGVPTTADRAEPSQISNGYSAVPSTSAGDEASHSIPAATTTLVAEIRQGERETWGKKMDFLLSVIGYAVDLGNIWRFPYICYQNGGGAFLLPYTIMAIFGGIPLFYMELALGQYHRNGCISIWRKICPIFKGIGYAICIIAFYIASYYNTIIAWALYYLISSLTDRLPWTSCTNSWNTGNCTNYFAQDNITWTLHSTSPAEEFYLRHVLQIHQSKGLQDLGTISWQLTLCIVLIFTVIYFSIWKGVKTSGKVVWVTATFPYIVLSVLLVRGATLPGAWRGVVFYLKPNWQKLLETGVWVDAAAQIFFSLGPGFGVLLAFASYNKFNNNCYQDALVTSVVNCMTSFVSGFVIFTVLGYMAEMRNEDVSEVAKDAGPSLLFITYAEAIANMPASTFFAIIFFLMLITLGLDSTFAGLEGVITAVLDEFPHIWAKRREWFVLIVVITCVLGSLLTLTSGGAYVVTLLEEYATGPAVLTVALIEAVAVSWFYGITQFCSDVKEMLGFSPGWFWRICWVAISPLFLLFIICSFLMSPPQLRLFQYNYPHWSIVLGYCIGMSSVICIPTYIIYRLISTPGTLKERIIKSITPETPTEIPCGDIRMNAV

Mus musculus [3] = assay: Effect on hypothermia in Swiss albino mouse assessed as change in rectal body temperature at 5 mg/kg, ip after 30 mins by inducible hypothermia test; format: functional, organism-based; parameters: dose 5 mg/kg
Mus musculus [4] = assay: Effect on hypothermia in Swiss albino mouse assessed as change in rectal body temperature at 5 mg/kg, ip after 60 mins by inducible hypothermia test; format: functional, organism-based; parameters: dose 5 mg/kg
Mus musculus [5] = assay: Effect on hypothermia in Swiss albino mouse assessed as change in rectal body temperature at 5 mg/kg, ip after 90 mins by inducible hypothermia test; format: functional, organism-based; parameters: dose 5 mg/kg
Mus musculus [6] = assay: Effect on hypothermia in Swiss albino mouse assessed as change in rectal body temperature at 5 mg/kg, ip after 120 mins by inducible hypothermia test; format: functional, organism-based; parameters: dose 5 mg/kg
Mus musculus [7] = assay: Effect on hypothermia in Swiss albino mouse assessed as change in rectal body temperature at 10 mg/kg, ip after 30 mins by inducible hypothermia test; format: functional, organism-based; parameters: dose 10 mg/kg
Mus musculus [8] = assay: Effect on hypothermia in Swiss albino mouse assessed as change in rectal body temperature at 10 mg/kg, ip after 60 mins by inducible hypothermia test; format: functional, organism-based; parameters: dose 10 mg/kg
Mus musculus [9] = assay: Effect on hypothermia in Swiss albino mouse assessed as change in rectal body temperature at 10 mg/kg, ip after 90 mins by inducible hypothermia test; format: functional, organism-based; parameters: dose 10 mg/kg
Mus musculus [10] = assay: Effect on hypothermia in Swiss albino mouse assessed as change in rectal body temperature at 10 mg/kg, ip after 120 mins by inducible hypothermia test; format: functional, organism-based; parameters: dose 10 mg/kg
Mus musculus [11] = assay: Effect on hypothermia in Swiss albino mouse assessed as change in rectal body temperature at 20 mg/kg, ip after 30 mins by inducible hypothermia test; format: functional, organism-based; parameters: dose 20 mg/kg
Mus musculus [12] = assay: Effect on hypothermia in Swiss albino mouse assessed as change in rectal body temperature at 20 mg/kg, ip after 60 mins by inducible hypothermia test; format: functional, organism-based; parameters: dose 20 mg/kg
Mus musculus [13] = assay: Effect on hypothermia in Swiss albino mouse assessed as change in rectal body temperature at 20 mg/kg, ip after 90 mins by inducible hypothermia test; format: functional, organism-based; parameters: dose 20 mg/kg
Mus musculus [14] = assay: Effect on hypothermia in Swiss albino mouse assessed as change in rectal body temperature at 20 mg/kg, ip after 120 mins by inducible hypothermia test; format: functional, organism-based; parameters: dose 20 mg/kg
Mus musculus [15] = assay: Effect on hypothermia in Swiss albino mouse assessed as change in rectal body temperature at 20 mg/kg, ip dosed 15 mins after 0.1 mg/kg, sc WAY 100635 challenge measured after 30 mins by inducible hypothermia test; format: functional, organism-based
Mus musculus [16] = assay: Effect on hypothermia in Swiss albino mouse assessed as change in rectal body temperature at 20 mg/kg, ip dosed 15 mins after 0.1 mg/kg, sc WAY 100635 challenge measured after 60 mins by inducible hypothermia test; format: functional, organism-based
Mus musculus [17] = assay: Reduction of 8-OH-DPAT-induced hypothermia in Swiss albino mouse at 20 mg/kg, ip administered 45 mins prior 8-OH-DPAT challenge measured after 15 mins by inducible hypothermia test; format: functional, organism-based; parameters: dose 20 mg/kg
Mus musculus [18] = assay: Reduction of 8-OH-DPAT-induced hypothermia in Swiss albino mouse at 20 mg/kg, ip administered 45 mins prior 8-OH-DPAT challenge measured after 30 mins by inducible hypothermia test; format: functional, organism-based; parameters: dose 20 mg/kg
Mus musculus [19] = assay: Reduction of 8-OH-DPAT-induced hypothermia in Swiss albino mouse at 20 mg/kg, ip administered 45 mins prior 8-OH-DPAT challenge measured after 45 mins by inducible hypothermia test; format: functional, organism-based; parameters: dose 20 mg/kg
Mus musculus [20] = assay: Reduction of 8-OH-DPAT-induced hypothermia in Swiss albino mouse at 20 mg/kg, ip administered 45 mins prior 8-OH-DPAT challenge measured after 60 mins by inducible hypothermia test; format: functional, organism-based; parameters: dose 20 mg/kg
Mus musculus [21] = assay: Antidepressant activity in Swiss albino mouse assessed as total immobility time at 10 mg/kg, ip administered 30 mins before test measured 6 mins test session after 2 mins habituation period by forced swimming test; format: functional, organism-based; parameters: dose 10 mg/kg
Mus musculus [22] = assay: Antidepressant activity in Swiss albino mouse assessed as total immobility time at 20 mg/kg, ip administered 30 mins before test measured 6 mins test session after 2 mins habituation period by forced swimming test; format: functional, organism-based; parameters: dose 20 mg/kg
Mus musculus [23] = species on record: Mus musculus; settings: Swiss albino, 10 mg/kg
Description: Effect on hypothermia in Swiss albino mouse assessed as change in rectal body temperature at 10 mg/kg, ip dosed 15 mins after 0.1 mg/kg, sc WAY 100635 challenge measured after 30 mins by inducible hypothermia test

Mus musculus [24] = species on record: Mus musculus; settings: Swiss albino, 10 mg/kg; remark: listed apart in the source
Description: Effect on hypothermia in Swiss albino mouse assessed as change in rectal body temperature at 10 mg/kg, ip dosed 15 mins after 0.1 mg/kg, sc WAY 100635 challenge measured after 60 mins by inducible hypothermia test

Mus musculus [25] = assay: Effect on hypothermia in Swiss albino mouse assessed as change in rectal body temperature at 2.5 mg/kg, ip after 30 mins by inducible hypothermia test; format: functional, organism-based; parameters: dose 2.5 mg/kg
Mus musculus [26] = assay: Effect on hypothermia in Swiss albino mouse assessed as change in rectal body temperature at 2.5 mg/kg, ip after 60 mins by inducible hypothermia test; format: functional, organism-based; parameters: dose 2.5 mg/kg
Mus musculus [27] = assay: Effect on hypothermia in Swiss albino mouse assessed as change in rectal body temperature at 2.5 mg/kg, ip after 90 mins by inducible hypothermia test; format: functional, organism-based; parameters: dose 2.5 mg/kg
Mus musculus [28] = assay: Effect on hypothermia in Swiss albino mouse assessed as change in rectal body temperature at 2.5 mg/kg, ip after 120 mins by inducible hypothermia test; format: functional, organism-based; parameters: dose 2.5 mg/kg
Mus musculus [29] = assay: Effect on hypothermia in Swiss albino mouse assessed as change in rectal body temperature at 5 mg/kg, ip dosed 15 mins after 0.1 mg/kg, sc WAY 100635 challenge measured after 30 mins by inducible hypothermia test; format: functional, organism-based
Mus musculus [30] = assay: Effect on hypothermia in Swiss albino mouse assessed as change in rectal body temperature at 5 mg/kg, ip dosed 15 mins after 0.1 mg/kg, sc WAY 100635 challenge measured after 60 mins by inducible hypothermia test; format: functional, organism-based

Compound: Cc1ccc(-c2c3n(c(=O)n(CCCCN4CCC(c5c(C)[nH]c6ccccc56)CC4)c2=O)CCCC3)cc1
Ki [1]: 279 nM
Ki [2]: 1800 nM

Ki [1]: 19.9 nM
Ki [2]: 134 nM
Compound: COc1ccccc1-c1c2n(c(=O)n(CCCCN3CCC(c4c[nH]c5ccccc45)CC3)c1=O)CCCC2
deltaT (Mus musculus [3]): -0.8 °C
deltaT (Mus musculus [4]): -0.5 °C
deltaT (Mus musculus [5]): -0.3 °C
deltaT (Mus musculus [6]): -0.2 °C
deltaT (Mus musculus [7]): -0.9 °C
deltaT (Mus musculus [8]): -0.5 °C
deltaT (Mus musculus [9]): -0.3 °C
deltaT (Mus musculus [10]): -0.2 °C
deltaT (Mus musculus [11]): -0.7 °C
deltaT (Mus musculus [12]): -0.5 °C
deltaT (Mus musculus [13]): -0.2 °C
deltaT (Mus musculus [14]): 0 °C
deltaT (Mus musculus [15]): -0.3 °C
deltaT (Mus musculus [16]): -0.1 °C

Compound: Cc1[nH]c2ccccc2c1C1CCN(CCCCn2c(=O)c(-c3ccc(F)cc3)c3n(c2=O)CCCC3)CC1
Ki [1]: 114 nM
Ki [2]: 147 nM

Ki [1]: 62.3 nM
Ki [2]: 47 nM
Compound: O=c1c(-c2ccc(F)cc2)c2n(c(=O)n1CCCCN1CCC(c3c[nH]c4ccccc34)CC1)CCCC2
deltaT (Mus musculus [17]): -0.7 °C
deltaT (Mus musculus [18]): -1.6 °C
deltaT (Mus musculus [19]): -1.1 °C
deltaT (Mus musculus [20]): -0.6 °C

Compound: COc1ccc(-c2c3n(c(=O)n(CCCCN4CCC(c5c[nH]c6ccccc56)CC4)c2=O)CCCC3)cc1
Ki [1]: 32.4 nM
Ki [2]: 50.4 nM
deltaT (Mus musculus [3]): -0.6 °C
deltaT (Mus musculus [4]): -0.2 °C
deltaT (Mus musculus [5]): -0.2 °C
deltaT (Mus musculus [6]): -0.2 °C
deltaT (Mus musculus [7]): -0.8 °C
deltaT (Mus musculus [8]): -0.5 °C
deltaT (Mus musculus [9]): -0.3 °C
deltaT (Mus musculus [10]): -0.2 °C
deltaT (Mus musculus [11]): -1.6 °C
deltaT (Mus musculus [12]): -0.9 °C
deltaT (Mus musculus [13]): -0.5 °C
deltaT (Mus musculus [14]): -0.3 °C
deltaT (Mus musculus [15]): -0.3 °C
deltaT (Mus musculus [16]): -0.2 °C
Activity (Mus musculus [21]): inactive
Activity (Mus musculus [22]): inactive

Compound: Cc1[nH]c2ccccc2c1C1CCN(CCCCn2c(=O)c(-c3ccccc3Cl)c3n(c2=O)CCCC3)CC1
Ki [1]: 393 nM
Ki [2]: 1300 nM

Ki [1]: 28.3 nM
Ki [2]: 81.7 nM
Compound: O=c1c(-c2ccccc2)c2n(c(=O)n1CCCCN1CCC(c3c[nH]c4ccccc34)CC1)CCCC2
deltaT (Mus musculus [3]): -0.7 °C
deltaT (Mus musculus [4]): -0.3 °C
deltaT (Mus musculus [5]): -0.2 °C
deltaT (Mus musculus [6]): -0.1 °C
deltaT (Mus musculus [7]): -1.1 °C
deltaT (Mus musculus [8]): -0.3 °C
deltaT (Mus musculus [9]): -0.2 °C
deltaT (Mus musculus [10]): -0.1 °C
deltaT (Mus musculus [23]): -0.5 °C
deltaT (Mus musculus [24]): -0.2 °C

Compound: O=c1c(-c2ccccc2F)c2n(c(=O)n1CCCCN1CCC(c3c[nH]c4ccccc34)CC1)CCCC2
Ki [1]: 41.3 nM
Ki [2]: 68.4 nM
deltaT (Mus musculus [3]): -1.3 °C
deltaT (Mus musculus [4]): -0.8 °C
deltaT (Mus musculus [5]): -0.5 °C
deltaT (Mus musculus [6]): -0.3 °C
deltaT (Mus musculus [25]): -0.5 °C
deltaT (Mus musculus [26]): -0.2 °C
deltaT (Mus musculus [27]): -0.1 °C
deltaT (Mus musculus [28]): -0.1 °C
deltaT (Mus musculus [29]): -0.2 °C
deltaT (Mus musculus [30]): -0.1 °C
